From patent US7479471B2, “2-Amino-4-bicyclylamino-6H-1,3,5-triazines, processes for their preparation and their use as herbicides and plant growth regulators” (Bayer CropScience GmbH, priority 2002, dated 2009)

Tests used:
Type in all cases: in vivo
[1] = system: harmful plants which are typical for rice crops; test: Action against harmful plants in rice (paddy rice conditions); conditions: applied to the paddy water; approximately three weeks after application; Cyperus monti, Echinochloa crus-galli, Eleocharis acicularis, Sagittaria pygmaea; further: test concentration or dose not given here
Method: Transplanted and seeded rice and typical rice weeds are grown in the greenhouse until they have reached the three-leaf stage (Echinochloa 1.5-leaves) under paddy rice conditions (flooding level of the water: 2-3 cm) in closed plastic pots. They are then treated with the compounds according to the invention. To this end, the formulated active substances are suspended, dissolved or emulsified in water and applied to the paddy water of the test plants at various dosages by application by pouring.
After the treatment has been carried out in this way, the test plants are placed into the greenhouse under optimum growth conditions and are kept in this way over the entire experimental period.

[2] = system: monocotyledonous and dicotyledonous weed plants; test: Pre-emergence herbicidal action (greenhouse pot test); conditions: pre-emergence method; application rate of 0.5 kg and less of active substance per hectare; Sinapis alba, Chrysanthemum segetum, Avena sativa, Stellaria media, Echinochloa crus-galli, Lolium multiflorum, Setaria spp., Abutilon theophrasti, Amaranthus retrofluxus, Panicum miliaceum
Text: Seeds or rhizome pieces of monocotyledonous and dicotyledonous weed plants are placed in sandy loam in plastic pots and covered with soil. The compounds according to the invention, which are formulated in the form of wettable powders or emulsion concentrates, are then applied to the surface of the soil cover as aqueous suspension or emulsion at various dosages with an application rate of 600 to 800 l of water/ha (converted).
After the treatment, the pots are placed into a greenhouse and kept under good growth conditions for the weeds. The plant or emergence damage is scored visually after the untreated controls have emerged. As shown by the test results, the compounds according to the invention have good herbicidal pre-emergence activity against a broad spectrum of weed grasses and broad-leaved weeds.

[3] = system: monocotyledonous and dicotyledonous weeds; test: Post-emergence herbicidal action (greenhouse pot test); conditions: post-emergence method; application rate of 0.5 kg or less of active substance per hectare; scored after approx. 3 to 4 weeks; Sinapis alba, Echinochloa crus-galli, Lolium multiflorum, Chrysanthemum segetum, Setaria spp., Abutilon theophrasti, Amaranthus retroflexus, Panicum miliaceum, Avena sativa
Method: Seeds or rhizone pieces of monocotyledonous and dicotyledonous weeds are placed in sandy loam in plastic pots, covered with soil and grown in the greenhouse under good growth conditions. Three weeks after sowing, the test plants are treated at the three-leaf stage. Various dosages of the compounds according to the invention, which are formulated as wettable powders or emulsion concentrates, are sprayed onto the green plant parts at an application rate of 600 to 800 l of water per ha (converted), and after the test plants have been left to stand in the greenhouse for approx. 3 to 4 weeks under optimum growth conditions, the effect of the preparations is scored visually by comparison with untreated controls. The compositions according to the invention also have good herbicidal post-emergence activity against a broad spectrum of economically important weed grasses and broad-leaved weeds.

[4] = system: crop plants; test: Crop plant tolerance (greenhouse, pre- and post-emergence); conditions: visual scoring four to five weeks after application
Method: In further greenhouse experiments, seeds of a relatively large number of crop plants and weeds are placed in sandy loam and covered with soil. Some of the pots are treated immediately as described in Section 1, while the remaining pots are placed in the greenhouse until the plants have developed two to three real leaves, and they are then sprayed with various dosages of substances of the formula (I) according to invention as described in Section 2. Four to five weeks after the application and standing time in the greenhouse, it is found by means of visual scoring that the compounds according to the invention leave dicotyledonous crops such as, for example, soybeans, cotton, oilseed rape, sugar beet and potatoes unharmed when applied pre- and post-emergence, even at high rates of active compound. In addition, some substances also leave graminaceous crops such as, for example, barley, wheat, rye, sorghum, corn or rice, unharmed.

With `Cc1ccc2c(c1)C(Nc1ncnc(N)n1)C(C)(C)C2` (stereo not drawn) [Example 292] the “herbicidal action against harmful plants typical for rice crops, scored visually” value [1] was “very good herbicidal action”, the “herbicidal action against harmful plants, scored visually” value [2] was “very good herbicidal action” and the “herbicidal action against harmful plants, scored visually” value [3] was “very good herbicidal action”. The “selectivity (crop plants versus weeds)” value [4] was “in some cases high selectivity”.

In the case of `Cc1cc(C)c2c(c1)C(Nc1ncnc(N)n1)CCO2` (stereo not drawn) [Example 4], the “herbicidal action against harmful plants typical for rice crops, scored visually” value [1] is reported as “very good herbicidal action”, the “herbicidal action against harmful plants, scored visually” value [2] is reported as “very good herbicidal action” and the “herbicidal action against harmful plants, scored visually” value [3] is reported as “very good herbicidal action”. The “selectivity (crop plants versus weeds)” value [4] was “in some cases high selectivity”.

With `Cc1cc(C)c2c(c1)C(Nc1ncnc(N)n1)CCS2` (stereo not drawn) [Example 79] the “herbicidal action against harmful plants typical for rice crops, scored visually” value [1] was “very good herbicidal action”, the “herbicidal action against harmful plants, scored visually” value [2] was “very good herbicidal action” and the “herbicidal action against harmful plants, scored visually” value [3] was “very good herbicidal action”. For the same molecule, the “selectivity (crop plants versus weeds)” value [4] was “in some cases high selectivity”.

In the case of `Cc1ccc2c(c1C)CCCC2Nc1ncnc(N)n1` (stereo not drawn) [Example 19], the “herbicidal action against harmful plants typical for rice crops, scored visually” value [1] is reported as “very good herbicidal action”, the “herbicidal action against harmful plants, scored visually” value [2] is reported as “very good herbicidal action” and the “herbicidal action against harmful plants, scored visually” value [3] is reported as “very good herbicidal action”. The “selectivity (crop plants versus weeds)” value [4] was “in some cases high selectivity”.

`CC(=O)Nc1ncnc(NC2c3cc(F)ccc3CC2C)n1` (stereo not drawn) [Example 283] was tested, and the “herbicidal action against harmful plants typical for rice crops, scored visually” value [1] was “very good herbicidal action”, the “herbicidal action against harmful plants, scored visually” value [2] was “very good herbicidal action” and the “herbicidal action against harmful plants, scored visually” value [3] was “very good herbicidal action”. For the same molecule, the “selectivity (crop plants versus weeds)” value [4] was “in some cases high selectivity”.

With `Cc1cccc2c1OCCC2Nc1ncnc(N)n1` (stereo not drawn) [Example 5] the “herbicidal action against harmful plants typical for rice crops, scored visually” value [1] was “very good herbicidal action”, the “herbicidal action against harmful plants, scored visually” value [2] was “very good herbicidal action” and the “herbicidal action against harmful plants, scored visually” value [3] was “very good herbicidal action”. For the same molecule, the “selectivity (crop plants versus weeds)” value [4] was “in some cases high selectivity”.

In the case of `CC1Cc2ccc(F)cc2C1Nc1ncnc(NC(=O)CCl)n1` (stereo not drawn) [Example 286], the “herbicidal action against harmful plants typical for rice crops, scored visually” value [1] is reported as “very good herbicidal action”, the “herbicidal action against harmful plants, scored visually” value [2] is reported as “very good herbicidal action” and the “herbicidal action against harmful plants, scored visually” value [3] is reported as “very good herbicidal action”. The “selectivity (crop plants versus weeds)” value [4] was “in some cases high selectivity”.

For `Cc1ccc2c(c1)C(Nc1ncnc(N)n1)CC2` (stereo not drawn) [Example 146], the “herbicidal action against harmful plants typical for rice crops, scored visually” value [1] was “very good herbicidal action”, the “herbicidal action against harmful plants, scored visually” value [2] was “very good herbicidal action” and the “herbicidal action against harmful plants, scored visually” value [3] was “very good herbicidal action”. For the same molecule, the “selectivity (crop plants versus weeds)” value [4] was “in some cases high selectivity”.

In the case of `CCC1Cc2ccc(C)cc2C1Nc1ncnc(N)n1` (stereo not drawn) [Example 291], the “herbicidal action against harmful plants typical for rice crops, scored visually” value [1] is reported as “very good herbicidal action”, the “herbicidal action against harmful plants, scored visually” value [2] is reported as “very good herbicidal action” and the “herbicidal action against harmful plants, scored visually” value [3] is reported as “very good herbicidal action”. For the same molecule, the “selectivity (crop plants versus weeds)” value [4] was “in some cases high selectivity”.

`Nc1ncnc(NC2CCOc3ccc(F)cc32)n1` (stereo not drawn) [Example 289] was tested, and the “herbicidal action against harmful plants typical for rice crops, scored visually” value [1] was “very good herbicidal action”, the “herbicidal action against harmful plants, scored visually” value [2] was “very good herbicidal action” and the “herbicidal action against harmful plants, scored visually” value [3] was “very good herbicidal action”. For the same molecule, the “selectivity (crop plants versus weeds)” value [4] was “in some cases high selectivity”.

`CC1Cc2cc(Cl)ccc2C1Nc1ncnc(N)n1` (stereo not drawn) [Example 58] was tested, and the “herbicidal action against harmful plants typical for rice crops, scored visually” value [1] was “very good herbicidal action”, the “herbicidal action against harmful plants, scored visually” value [2] was “very good herbicidal action” and the “herbicidal action against harmful plants, scored visually” value [3] was “very good herbicidal action”. The “selectivity (crop plants versus weeds)” value [4] was “in some cases high selectivity”.

In the case of `Cc1cc(C)c2c(c1)C(Nc1ncnc(N)n1)CCC2` (stereo not drawn) [Example 1], the “herbicidal action against harmful plants typical for rice crops, scored visually” value [1] is reported as “very good herbicidal action”, the “herbicidal action against harmful plants, scored visually” value [2] is reported as “very good herbicidal action” and the “herbicidal action against harmful plants, scored visually” value [3] is reported as “very good herbicidal action”. For the same molecule, the “selectivity (crop plants versus weeds)” value [4] was “in some cases high selectivity”.

For `CC1Cc2cc(F)ccc2C1Nc1ncnc(N)n1` (stereo not drawn) [Example 55], the “herbicidal action against harmful plants typical for rice crops, scored visually” value [1] was “very good herbicidal action”, the “herbicidal action against harmful plants, scored visually” value [2] was “very good herbicidal action” and the “herbicidal action against harmful plants, scored visually” value [3] was “very good herbicidal action”. For the same molecule, the “selectivity (crop plants versus weeds)” value [4] was “in some cases high selectivity”.

In the case of `CC1Cc2ccc(F)cc2C1Nc1ncnc(N)n1` (stereo not drawn) [Example 282], the “herbicidal action against harmful plants typical for rice crops, scored visually” value [1] is reported as “very good herbicidal action”, the “herbicidal action against harmful plants, scored visually” value [2] is reported as “very good herbicidal action” and the “herbicidal action against harmful plants, scored visually” value [3] is reported as “very good herbicidal action”. The “selectivity (crop plants versus weeds)” value [4] was “in some cases high selectivity”.

With `Cc1cc(F)cc2c1OCCC2Nc1ncnc(N)n1` (stereo not drawn) [Example 288] the “herbicidal action against harmful plants typical for rice crops, scored visually” value [1] was “very good herbicidal action”, the “herbicidal action against harmful plants, scored visually” value [2] was “very good herbicidal action” and the “herbicidal action against harmful plants, scored visually” value [3] was “very good herbicidal action”. The “selectivity (crop plants versus weeds)” value [4] was “in some cases high selectivity”.

`CC1Cc2ccccc2C1Nc1ncnc(N)n1` (stereo not drawn) [Example 198] was tested, and the “herbicidal action against harmful plants typical for rice crops, scored visually” value [1] was “very good herbicidal action”, the “herbicidal action against harmful plants, scored visually” value [2] was “very good herbicidal action” and the “herbicidal action against harmful plants, scored visually” value [3] was “very good herbicidal action”. For the same molecule, the “selectivity (crop plants versus weeds)” value [4] was “in some cases high selectivity”.

For `Cc1ccc2c(c1)C(Nc1ncnc(N)n1)C(C)C2` (stereo not drawn) [Example 281], the “herbicidal action against harmful plants typical for rice crops, scored visually” value [1] was “very good herbicidal action”, the “herbicidal action against harmful plants, scored visually” value [2] was “very good herbicidal action” and the “herbicidal action against harmful plants, scored visually” value [3] was “very good herbicidal action”. The “selectivity (crop plants versus weeds)” value [4] was “in some cases high selectivity”.

For `Nc1ncnc(NC2CCc3ccccc32)n1` (stereo not drawn) [Example 185], the “herbicidal action against harmful plants typical for rice crops, scored visually” value [1] was “very good herbicidal action”, the “herbicidal action against harmful plants, scored visually” value [2] was “very good herbicidal action” and the “herbicidal action against harmful plants, scored visually” value [3] was “very good herbicidal action”. For the same molecule, the “selectivity (crop plants versus weeds)” value [4] was “in some cases high selectivity”.

`Cc1cccc2c1C(Nc1ncnc(N)n1)C(C)C2` (stereo not drawn) [Example 290] was tested, and the “herbicidal action against harmful plants typical for rice crops, scored visually” value [1] was “very good herbicidal action”, the “herbicidal action against harmful plants, scored visually” value [2] was “very good herbicidal action” and the “herbicidal action against harmful plants, scored visually” value [3] was “very good herbicidal action”. The “selectivity (crop plants versus weeds)” value [4] was “in some cases high selectivity”.

With `CC1Cc2ccc(F)cc2C1Nc1ncnc(NC(=O)C(F)(F)F)n1` (stereo not drawn) [Example 285] the “herbicidal action against harmful plants typical for rice crops, scored visually” value [1] was “very good herbicidal action”, the “herbicidal action against harmful plants, scored visually” value [2] was “very good herbicidal action” and the “herbicidal action against harmful plants, scored visually” value [3] was “very good herbicidal action”. The “selectivity (crop plants versus weeds)” value [4] was “in some cases high selectivity”.

For `Cc1cc2c(cc1C)C(Nc1ncnc(N)n1)C(C)C2` (stereo not drawn) [Example 293], the “herbicidal action against harmful plants typical for rice crops, scored visually” value [1] was “very good herbicidal action”, the “herbicidal action against harmful plants, scored visually” value [2] was “very good herbicidal action” and the “herbicidal action against harmful plants, scored visually” value [3] was “very good herbicidal action”. For the same molecule, the “selectivity (crop plants versus weeds)” value [4] was “in some cases high selectivity”.
